Patent publication EP3064205A1, “Therapeutic use of isomeric forms of 2-(4-chlorophenyl)quinolin-4-yl)(piperidin-2-yl)methanol” (Glionova AB, priority 2015, dated 2016)
Where two headings read alike, the source gives them in different places.

Columns and labels:
Experiment in all cases: 3D clonogenic assay (PDX)
Format in all cases: cell-based, human
LXFA 983 = conditions: LXFA 983, Lung Adeno; for IC50: Homo sapiens
Method: (§1) The anti-tumor efficacy of S1 in the patient-derived tumor xenograft (PDX) tumor panel was assessed, where the efficacy of S1 in PDX tumor panel in the 96-well format, in 10 concentrations in duplicate was performed. Colony formation of tumor cell suspensions in a soft-agar matrix was observed and quantified. The output is IC50 values and dose response-relationships based on number of colonies in control and treatment wells, as identified by an automated image analysis algorithm. Stock solution of S1 was prepared in 100% DMSO at 10 mM concentration (stored at -20°C) and reused for each experiment. Compound final test concentrations: Dilution series ½ i.e.: 50µM, 15, 5, 1.5, 0.5, 0.15, 0.05, 0.015, 0.005 and 0.0015.
(§2) Tumor xenografts (also referred to as patient-derived tumor xenografts) were passaged as subcutaneous xenografts in NMRI nu/nu mice. Tumor xenograft were removed from mice under sterile conditions, mechanically disaggregated and subsequently incubated with an enzyme cocktail consisting of collagenase type IV (41 U/mL), DNase I (125 U/mL), hyaluronidase type III (100 U/mL) and dispase II (1.0 U/mL) in RPMI 1640 medium at 37°C for 60 - 120 minutes. Cells were passed through sieves of 100 µm and 40 µm mesh size and washed with RPMI 1640 medium. The percentage of viable cells was determined in a Neubauer-hemocytometer using trypan blue exclusion. Aliquots of the cells were frozen down, and stored in liquid nitrogen.
(§3) The clonogenic assay test was carried out in 96 well plate format. For each test a frozen aliquot of tumor cells prepared from tumor xenografts was thawed and assay plates were prepared as follows: each test well contained 3 layers of equal volume, 2 layers of semi-solid medium (bottom and top layer), and one layer of medium supernatant, with or without test compound. The bottom layer consisted of 0.05 mL/well Iscove's Modified Dulbecco's Medium (Invitrogen), supplemented with 20% (v/v) fetal calf serum (Sigma), 0.01% (w/v) gentamicin (Invitrogen) and 0.75% (w/v) agar (BD Biosciences). Tumor cells were added to 0.05 mL of the same culture medium supplemented with 0.4% (w/v) agar and plated onto the bottom layer. After 24 h, test compounds were added after serial dilution in DMSO and transfer in cell culture medium, and left on the cells for the duration of the experiment (continuous exposure, 0.05 mL drug overlay). Every dish included six untreated control wells and drug-treated groups in duplicate at 10 concentrations. Cultures were incubated at 37 °C and 7.5% CO2 in a humidified atmosphere for 8 to 13 days and monitored closely for colony growth using an inverted microscope. Within this period, ex vivo tumor growth lead to the formation of colonies with a diameter of >50 µm. At the time of maximum colony formation, counts were performed with an automatic image analysis system. 24 h prior to evaluation, vital colonies were stained with a sterile aqueous solution of 2-(4-iodophenyl)-3-(4-nitrophenyl)-5-phenyltetrazolium chloride (1 mg/mL, 100 µL/well). Sigmoidal concentration-response curves were fitted to the data points obtained for each tumor model using 4 parameter non-linear curve fit (Oncotest Warehouse Software). IC50 values are reported as relative IC50 values, being the concentration of test compound that give a response (inhibition of colony formation/viability) half way between the top and bottom plateau of the sigmoidal concentration-response curve (inflection point of the curve), or as absolute IC50 values, being the concentration of test compound at the intersection of the concentration-response curves with T/C = 50%. For calculation of mean IC50 values the geometric mean was used. Results are presented as mean graph plots or heat maps (individual IC50 values relative to the geometric mean IC50 value) over all cell lines as tested.

GXF 251 = conditions: GXF 251, Gastric; for IC50: Homo sapiens
Method: as §1, §2, §3

GXF 1172 = conditions: GXF 1172, Gastric; for IC50: Homo sapiens
Method: as §1, §2, §3

MEXF 672 = conditions: MEXF 672, Melanoma; for IC50: Homo sapiens
Method: as §1, §2, §3

MEXF 1792 = conditions: MEXF 1792, Melanoma; for IC50: Homo sapiens
Method: as §1, §2, §3

RXF 1220 = conditions: RXF 1220, Renal; for IC50: Homo sapiens
Method: as §1, §2, §3

PAXF 2116 = conditions: PAXF 2116, Pancreas; for IC50: Homo sapiens
Method: as §1, §2, §3

MEXF 276 = conditions: MEXF 276, Melanoma; for IC50: Homo sapiens
Method: as §1, §2, §3

GXA 3044 = conditions: GXA 3044, Asian Gastric; for IC50: Homo sapiens
Method: as §1, §2, §3

HNXF 1853 = conditions: HNXF 1853, Head and Neck; for IC50: Homo sapiens
Method: as §1, §2, §3

BXF 1228 = conditions: BXF 1228, Bladder; for IC50: Homo sapiens
Method: as §1, §2, §3

GXF 97 = conditions: GXF 97, Gastric; for IC50: Homo sapiens
Method: as §1, §2, §3

PXF 1752 = conditions: PXF 1752, Pleuramesothelioma; for IC50: Homo sapiens
Method: as §1, §2, §3

`O[C@H](c1cc(-c2ccc(Cl)cc2)nc2ccccc12)[C@@H]1CCCCN1` [S1, (R)-(2-(4-chlorophenyl)quinolin-4-yl)((S)-piperidin-2-yl)methanol] was tested, and the IC50 (LXFA 983; read-out: abs. IC50) was 4.81 µM, the IC50 (LXFA 983; read-out: rel. IC50) was 4.6 µM and the “b (bottom plateau of concentration-effect curve)” value (LXFA 983) was 30. For the same molecule, the “t (top plateau of concentration-effect curve)” value (LXFA 983) was 96, the “b (bottom plateau of concentration-effect curve)” value (GXF 251) was 34 and the “t (top plateau of concentration-effect curve)” value (GXF 251) was 111. The IC50 (GXF 251; read-out: abs. IC50) was 6.02 µM, the IC50 (GXF 251; read-out: rel. IC50) was 5.26 µM and the “b (bottom plateau of concentration-effect curve)” value (GXF 1172) was 28. The “t (top plateau of concentration-effect curve)” value (GXF 1172) was 79, the IC50 (GXF 1172; read-out: abs. IC50) was 12.8 µM and the IC50 (GXF 1172; read-out: rel. IC50) was 12.5 µM. For the same molecule, the IC50 (MEXF 672; read-out: abs. IC50) was 8.96 µM, the IC50 (MEXF 672; read-out: rel. IC50) was 8.56 µM and the “b (bottom plateau of concentration-effect curve)” value (MEXF 672) was 39. The “t (top plateau of concentration-effect curve)” value (MEXF 672) was 96, the IC50 (MEXF 1792; read-out: abs. IC50) was 6.19 µM and the IC50 (MEXF 1792; read-out: rel. IC50) was 6.15 µM. The “b (bottom plateau of concentration-effect curve)” value (MEXF 1792) was 5, the “t (top plateau of concentration-effect curve)” value (MEXF 1792) was 99 and the IC50 (RXF 1220; read-out: abs. IC50) was 43.3 µM. The IC50 (RXF 1220; read-out: rel. IC50) was 43.4 µM, the “b (bottom plateau of concentration-effect curve)” value (RXF 1220) was 0 and the “t (top plateau of concentration-effect curve)” value (RXF 1220) was 99. The IC50 (PAXF 2116; read-out: abs. IC50) was 9.16 µM, the IC50 (PAXF 2116; read-out: rel. IC50) was 8.85 µM and the “b (bottom plateau of concentration-effect curve)” value (PAXF 2116) was 32. For the same molecule, the “t (top plateau of concentration-effect curve)” value (PAXF 2116) was 112, the IC50 (MEXF 276; read-out: abs. IC50) was 4.73 µM and the IC50 (MEXF 276; read-out: rel. IC50) was 4.65 µM. The “b (bottom plateau of concentration-effect curve)” value (MEXF 276) was 15, the “t (top plateau of concentration-effect curve)” value (MEXF 276) was 95 and the “b (bottom plateau of concentration-effect curve)” value (GXA 3044) was 15. The “t (top plateau of concentration-effect curve)” value (GXA 3044) was 101, the IC50 (GXA 3044; read-out: abs. IC50) was 9.08 µM and the IC50 (GXA 3044; read-out: rel. IC50) was 8.95 µM. The “b (bottom plateau of concentration-effect curve)” value (HNXF 1853) was 50, the “t (top plateau of concentration-effect curve)” value (HNXF 1853) was 106 and the IC50 (HNXF 1853; read-out: abs. IC50) was 50 µM. The IC50 (HNXF 1853; read-out: rel. IC50) was 8.77 µM, the “b (bottom plateau of concentration-effect curve)” value (BXF 1228) was 22 and the “t (top plateau of concentration-effect curve)” value (BXF 1228) was 98. For the same molecule, the IC50 (BXF 1228; read-out: abs. IC50) was 8.12 µM, the IC50 (BXF 1228; read-out: rel. IC50) was 6.67 µM and the “b (bottom plateau of concentration-effect curve)” value (GXF 97) was 20. For the same molecule, the “t (top plateau of concentration-effect curve)” value (GXF 97) was 97, the IC50 (GXF 97; read-out: abs. IC50) was 6.21 µM and the IC50 (GXF 97; read-out: rel. IC50) was 5.71 µM. For the same molecule, the IC50 (PXF 1752; read-out: abs. IC50) was 8.98 µM, the IC50 (PXF 1752; read-out: rel. IC50) was 8.85 µM and the “b (bottom plateau of concentration-effect curve)” value (PXF 1752) was 15. For the same molecule, the “t (top plateau of concentration-effect curve)” value (PXF 1752) was 109.
